Source: ChEMBL document CHEMBL1938311, “Potent adjuvantic activity of a CCR1-agonistic bis-quinoline” (Bioorg Med Chem Lett, 2012)
Active and inactive are the calls of the source. The calls are words filed in the database; no cut-off is given here.

Key:
HEK293 [1] = test: Transactivation of NF-kappaB expressed in HEK293 cells co-transfected TLR2/TLR3/TLR4/TLR5/TLR7/TLR8/TLR9/Nod-1 by alkaline phosphatase reporter gene assay; format: cell-based
HEK293 [2] = test: Transactivation of NF-kappaB expressed in HEK293 cells by alkaline phosphatase reporter gene assay; format: cell-based
Blood [3] = test: Pro-inflammatory activity in human whole blood assessed as TNF-alpha production upto 50 uM; format: functional, tissue-based
Blood [4] = test: Pro-inflammatory activity in human whole blood assessed as IL1-beta production upto 50 uM; format: functional, tissue-based
Blood [5] = test: Pro-inflammatory activity in human whole blood assessed as IL-6 production upto 50 uM; format: functional, tissue-based
Blood [6] = test: Pro-inflammatory activity in human whole blood assessed as IL-8 production upto 50 uM; format: functional, tissue-based
Blood [7] = test: Pro-inflammatory activity in human whole blood assessed as IL-12 production upto 50 uM; format: functional, tissue-based
Blood [8] = test: Pro-inflammatory activity in human whole blood assessed as IL-18 production upto 50 uM; format: functional, tissue-based
Blood [9] = test: Antiinflammatory activity in human whole blood assessed as IL-10 production upto 50 uM; format: functional, tissue-based
PBMC [10] = test: Immunostimulatory activity against human PBMC by transcriptional profiling; format: functional, cell-based
[11] = biological target: T1, C-C chemokine receptor type 1 (Homo sapiens, UniProt P32246); test: Agonist activity at human CCR1 expressed in CHO cells by cellular dielectric spectroscopy; format: functional, cell-based
T1 sequence (P32246 whole entry): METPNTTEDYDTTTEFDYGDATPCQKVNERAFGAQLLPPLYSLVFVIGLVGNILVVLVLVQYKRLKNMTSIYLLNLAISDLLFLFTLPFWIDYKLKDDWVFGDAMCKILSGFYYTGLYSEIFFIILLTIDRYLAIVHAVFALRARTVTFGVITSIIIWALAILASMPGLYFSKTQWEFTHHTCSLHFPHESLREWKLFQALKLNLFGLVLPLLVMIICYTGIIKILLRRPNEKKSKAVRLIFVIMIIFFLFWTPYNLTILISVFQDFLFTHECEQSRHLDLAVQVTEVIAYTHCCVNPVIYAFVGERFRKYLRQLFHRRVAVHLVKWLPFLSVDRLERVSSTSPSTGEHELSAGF

[12] = biological target: C-C chemokine receptor type 2 (Homo sapiens) (UniProt P41597); test: Agonist activity at CCR2 expressed in CHO cells at 10^-6 to 10^-5 M by cellular dielectric spectroscopy; format: functional, cell-based
C-C chemokine receptor type 2 (Homo sapiens), sequence (P41597 whole entry, looked up): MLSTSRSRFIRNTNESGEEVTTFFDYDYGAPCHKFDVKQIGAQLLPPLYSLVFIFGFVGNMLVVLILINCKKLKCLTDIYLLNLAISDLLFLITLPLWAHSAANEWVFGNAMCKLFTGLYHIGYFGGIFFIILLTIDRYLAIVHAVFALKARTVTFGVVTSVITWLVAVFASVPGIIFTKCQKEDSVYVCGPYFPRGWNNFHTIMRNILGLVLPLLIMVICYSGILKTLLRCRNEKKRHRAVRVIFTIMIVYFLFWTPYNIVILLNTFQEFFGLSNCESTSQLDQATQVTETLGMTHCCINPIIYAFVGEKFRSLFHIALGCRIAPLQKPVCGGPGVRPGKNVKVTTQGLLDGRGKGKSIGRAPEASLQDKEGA

[13] = biological target: T2, C-C chemokine receptor type 3 (Homo sapiens) (UniProt P51677); test: Agonist activity at CCR3 expressed in CHO cells at 10^-6 to 10^-5 M by cellular dielectric spectroscopy; format: functional, cell-based
T2 sequence (whole entry): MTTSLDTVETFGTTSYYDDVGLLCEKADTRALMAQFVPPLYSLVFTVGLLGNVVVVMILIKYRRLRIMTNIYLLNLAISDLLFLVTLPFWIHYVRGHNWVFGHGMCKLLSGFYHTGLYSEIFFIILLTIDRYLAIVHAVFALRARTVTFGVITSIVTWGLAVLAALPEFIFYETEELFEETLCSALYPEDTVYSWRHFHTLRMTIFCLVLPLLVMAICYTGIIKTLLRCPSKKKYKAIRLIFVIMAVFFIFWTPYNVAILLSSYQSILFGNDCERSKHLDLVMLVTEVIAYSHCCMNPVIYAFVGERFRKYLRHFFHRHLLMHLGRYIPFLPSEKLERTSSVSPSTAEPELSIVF

[14] = biological target: T3, C-X-C chemokine receptor type 2 (Homo sapiens) (UniProt P25025); test: Agonist activity at CXCR2 expressed in CHO cells at 10^-6 to 10^-5 M by cellular dielectric spectroscopy; format: functional, cell-based
T3 sequence (whole entry): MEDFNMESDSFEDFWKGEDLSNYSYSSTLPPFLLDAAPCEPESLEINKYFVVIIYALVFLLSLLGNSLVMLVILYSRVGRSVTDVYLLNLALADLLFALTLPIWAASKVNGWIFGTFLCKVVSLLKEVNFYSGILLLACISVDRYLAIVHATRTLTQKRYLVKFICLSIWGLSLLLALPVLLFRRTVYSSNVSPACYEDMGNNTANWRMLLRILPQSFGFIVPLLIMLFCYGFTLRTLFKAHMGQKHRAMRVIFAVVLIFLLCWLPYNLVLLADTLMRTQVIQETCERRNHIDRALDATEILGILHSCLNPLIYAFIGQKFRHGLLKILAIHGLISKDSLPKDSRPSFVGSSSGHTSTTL

[15] = biological target: C-X-C chemokine receptor type 4 (Homo sapiens) (UniProt P61073); test: Agonist activity at CXCR4 expressed in CHO cells at 10^-6 to 10^-5 M by cellular dielectric spectroscopy; format: functional, cell-based
C-X-C chemokine receptor type 4 (Homo sapiens), sequence (P61073 whole entry): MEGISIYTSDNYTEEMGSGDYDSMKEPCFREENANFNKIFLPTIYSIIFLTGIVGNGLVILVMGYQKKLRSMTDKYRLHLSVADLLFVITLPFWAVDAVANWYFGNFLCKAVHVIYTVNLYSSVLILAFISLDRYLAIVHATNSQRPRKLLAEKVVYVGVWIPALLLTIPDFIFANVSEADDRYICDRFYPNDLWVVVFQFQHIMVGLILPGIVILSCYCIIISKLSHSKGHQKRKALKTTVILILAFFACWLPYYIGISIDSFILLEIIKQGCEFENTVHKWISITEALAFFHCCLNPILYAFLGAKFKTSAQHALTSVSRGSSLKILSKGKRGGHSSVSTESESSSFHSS

Mus musculus [16] = test: Adjuvantic activity in CF-1 mouse assessed as increase in bovine alpha-lactalbumin-elicited antibodies production at 50 ug, im followed by booster dose administered on day 14 measured after 21 days by surface-plasmon resonance; format: functional, organism-based
Mus musculus [17] = test: Adjuvantic activity in CF-1 mouse assessed as increase in bovine alpha-lactalbumin-elicited IgG2a production at 50 ug, im followed by booster dose administered on day 14 measured after 21 days; format: functional, organism-based
Mus musculus [18] = test: Adjuvantic activity in CF-1 mouse assessed as increase in bovine alpha-lactalbumin-elicited IgG1 production at 50 ug, im followed by booster dose administered on day 14 measured after 21 days; format: functional, organism-based
Salmonella typhimurium [19] = test: Mutagenic activity in Salmonella Typhimurium TA100-S9 by Ames test; format: toxicity, organism-based; settings: salmonella enterica subsp. enterica serovar typhimurium
Mus musculus [20] = test: Toxicity in CF-1 mouse assessed as mortality up to 100 mg/kg, ip administered as single dose measured at 48 hrs; format: organism-based; parameters: dose 100 mg/kg, route intraperitoneal; settings: in vivo
Salmonella typhimurium [21] = test: Mutagenic activity in Salmonella Typhimurium TA1535-S9 by Ames test; format: toxicity, organism-based; settings: salmonella enterica subsp. enterica serovar typhimurium
Salmonella typhimurium [22] = test: Mutagenic activity in Salmonella Typhimurium TA98-S9 by Ames test; format: toxicity, organism-based; settings: salmonella enterica subsp. enterica serovar typhimurium
PBMC [23] = test: Modulation of inflammation in human PBMC by transcriptional profiling; format: functional, cell-based

Clc1ccc2c(NCCCNc3ccnc4cc(Cl)ccc34)ccnc2c1
Activity (HEK293 [1]): inactive

Clc1ccc2c(NCCCCCCCNc3ccnc4cc(Cl)ccc34)ccnc2c1
Activity (HEK293 [1]): inactive

CCN(CC)CCCC(C)Nc1ccnc2cc(Cl)ccc12 (stereo not given)
Activity (HEK293 [1]): inactive

Clc1ccc2c(NCCCCNc3ccnc4cc(Cl)ccc34)ccnc2c1
Activity (HEK293 [1]): inactive
Activity (HEK293 [2]): Active
Activity (Blood [3]): inactive
Activity (Blood [4]): inactive
Activity (Blood [5]): inactive
Activity (Blood [6]): inactive
Activity (Blood [7]): inactive
Activity (Blood [8]): inactive
Activity (Blood [9]): inactive
Activity (PBMC [10]): inactive
EC50 [11]: 2000 nM
Activity [12]: inactive
Activity [13]: inactive
Activity [14]: inactive
Activity [15]: inactive
Activity (Mus musculus [16]): Active
Activity (Mus musculus [17]): Active
Activity (Mus musculus [18]): Active
Activity (Salmonella typhimurium [19]): Non-toxic
Activity (Mus musculus [20]): Non-toxic
Activity (Salmonella typhimurium [21]): Non-toxic
Activity (Salmonella typhimurium [22]): Non-toxic
Activity (PBMC [23]): inactive

Clc1ccc2c(NCCCCCCNc3ccnc4cc(Cl)ccc34)ccnc2c1
Activity (HEK293 [1]): inactive

Clc1ccc2c(NCCNc3ccnc4cc(Cl)ccc34)ccnc2c1
Activity (HEK293 [1]): inactive

CCCCCCCCCCCCCC(=O)OC(CCCCCCCCCCC)CC(=O)N[C@H]1[C@H](OC[C@H]2O[C@H](O)[C@H](NC(=O)CC(O)CCCCCCCCCCC)[C@@H](OC(=O)CC(O)CCCCCCCCCCC)[C@@H]2O)O[C@H](CO)[C@@H](OP(=O)(O)O)[C@@H]1OC(=O)CC(CCCCCCCCCCC)OC(=O)CCCCCCCCCCCCC (stereo not given in full)
Activity (Mus musculus [16]): Active
Activity (Mus musculus [17]): Active
Activity (Mus musculus [18]): Active

Clc1ccc2c(NCCCCCNc3ccnc4cc(Cl)ccc34)ccnc2c1
Activity (HEK293 [1]): inactive

Clc1ccc2c(NCCCCCCCCCCCCNc3ccnc4cc(Cl)ccc34)ccnc2c1
Activity (HEK293 [1]): inactive

CCCCCCCCCCCCCCCC(=O)OCC(CSC[C@H](N)C(=O)N[C@@H](CO)C(=O)O)OC(=O)CCCCCCCCCCCCCCC (stereo not given in full)
Activity (Mus musculus [16]): Active
Activity (Mus musculus [17]): Active
Activity (Mus musculus [18]): Active

Clc1ccc2c(NCCCCCCCCCCNc3ccnc4cc(Cl)ccc34)ccnc2c1
Activity (HEK293 [1]): inactive

CCCc1nc2c(N)nc3ccccc3c2s1
Activity (Blood [3]): Active
Activity (Blood [4]): Active
Activity (Blood [5]): Active
Activity (Blood [6]): Active
Activity (Blood [7]): Active
Activity (Blood [8]): Active
Activity (Blood [9]): Active

Clc1ccc2c(NCCCCCCCCNc3ccnc4cc(Cl)ccc34)ccnc2c1
Activity (HEK293 [1]): inactive
